Test results published in patent US20240109918A1, “HETEROCYCLIC COMPOUNDS AND USES THEREOF” (Kumquat Biosciences Inc., priority 2022, published 2024).

Columns and labels:
KRASG12D = target: T1, KRASG12D (Homo sapiens, UniProt P01116, G12D); experiment: Bio-Biochem-PPI-HTRF Ras-SOS1 interaction assay (KRAS G12D); type: biochemical; conditions: 5 nM
T1 construct: made in house; host or cells: E. coli BL21 (DE3)
In short: (§1)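 HTRF readout (ex 337 nm; em 620 and 665 nm) after ≥~10 min incubation; IC50 fitted from 665/620 ratio. GST-K-Ras wt or G12D plus anti-GST-Eu(K), His-hSOS1 plus anti-6His-XL665; duplicate dilutions, 10 μM top.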

KRASwt = target: T2, KRASwt (Homo sapiens, UniProt P01116); experiment: Bio-Biochem-PPI-HTRF Ras-SOS1 interaction assay (KRAS wt); type: biochemical; conditions: 5 nM
T2 construct: made in house; host or cells: E. coli BL21 (DE3)
T2 sequence (P01116 1-188 isoform P01116-2): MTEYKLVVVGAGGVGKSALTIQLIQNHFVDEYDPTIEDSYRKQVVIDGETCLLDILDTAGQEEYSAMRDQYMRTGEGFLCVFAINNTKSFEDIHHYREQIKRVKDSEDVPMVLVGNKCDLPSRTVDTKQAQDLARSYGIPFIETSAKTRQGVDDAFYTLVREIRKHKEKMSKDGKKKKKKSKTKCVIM
In short: as §1

T1 sequence (P01116 1-188 isoform P01116-2 G12D): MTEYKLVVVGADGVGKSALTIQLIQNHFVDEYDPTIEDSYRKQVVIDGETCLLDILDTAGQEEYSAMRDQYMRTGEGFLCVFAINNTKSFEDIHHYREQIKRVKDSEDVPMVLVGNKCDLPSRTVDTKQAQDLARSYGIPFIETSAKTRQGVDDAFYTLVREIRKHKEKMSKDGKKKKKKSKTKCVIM

| IC50 (KRASG12D) [µM] | IC50 (KRASwt) [µM] | SMILES |
| --- | --- | --- |
| < 5 | < 5 | N#Cc1c(N)sc2c(F)ccc(-c3c(Cl)cc4c(N5CCCCC6(CN(C(=O)CC7(C#N)CC7)C6)C5)nc(OC[C@@]56CCCN5C[C@H](F)C6)nc4c3F)c12 [compound 280, 2-amino-4-(6-chloro-4-(2-(2-(1-cyanocyclopropyl)acetyl)-2,6-diazaspiro[3.6]decan-6-yl)-8-fluoro-2-(((2R,7aS)-2-fluorotetrahydro-1H-pyrrolizin-7a(5H)-yl)methoxy)quinazolin-7-yl)-7-fluorobenzo[b]thiophene-3-carbonitrile] |
| < 5 | < 5 | CC1(NC(=O)N2CC3(CCCCN(c4nc(OC[C@@]56CCCN5C[C@H](F)C6)nc5c(F)c(-c6ccc(F)c7sc(N)c(C#N)c67)c(Cl)cc45)C3)C2)COC1 [compound 328, 6-(7-(2-amino-3-cyano-7-fluorobenzo[b]thiophen-4-yl)-6-chloro-8-fluoro-2-(((2R,7aS)-2-fluorotetrahydro-1H-pyrrolizin-7a(5H)-yl)methoxy)quinazolin-4-yl)-N-(3-methyloxetan-3-yl)-2,6-diazaspiro[3.6]decane-2-carboxamide] |
| < 5 | < 5 | N#Cc1c(N)sc2c(F)ccc(-c3c(Cl)cc4c(N5CCCCC6(CN(C(=O)CC7CCC7)C6)C5)nc(OC[C@@]56CCCN5C[C@H](F)C6)nc4c3F)c12 [compound 320, 2-amino-4-(6-chloro-4-(2-(2-cyclobutylacetyl)-2,6-diazaspiro[3.6]decan-6-yl)-8-fluoro-2-(((2R,7aS)-2-fluorotetrahydro-1H-pyrrolizin-7a(5H)-yl)methoxy)quinazolin-7-yl)-7-fluorobenzo[b] thiophene-3-carbonitrile] |
| < 5 | < 5 | N#Cc1c(N)sc2c(F)ccc(-c3c(Cl)cc4c(N5CCCCC6(CN(C(=O)C[C@H]7CCOC7)C6)C5)nc(OC[C@@]56CCCN5C[C@H](F)C6)nc4c3F)c12 [compound 304, 2-amino-4-(6-chloro-8-fluoro-2-(((2R,7aS)-2-fluorotetrahydro-1H-pyrrolizin-7a(5H)-yl)methoxy)-4-(2-(2-((R)-tetrahydrofuran-3-yl)acetyl)-2,6-diazaspiro[3.6]decan-6-yl)quinazolin-7-yl)-7-fluorobenzo[b]thiophene-3-carbonitrile] |
| < 5 | < 5 | N#Cc1c(N)sc2c(F)ccc(-c3c(Cl)cc4c(N5CCCCC6(CN(CC7CC7(F)F)C6)C5)nc(OC[C@@]56CCCN5C[C@H](F)C6)nc4c3F)c12 (stereo partly drawn) [compound 255, 2-amino-4-(6-chloro-4-(2-((2,2-difluorocyclopropyl)methyl)-2,6-diazaspiro[3.6]decan-6-yl)-8-fluoro-2-(((2R,7aS)-2-fluorotetrahydro-1H-pyrrolizin-7a(5H)-yl)methoxy)quinazolin-7-yl)-7-fluorobenzo[b]thiophene-3-carbonitrile] |
| < 5 | < 5 | N#Cc1c(N)sc2c(F)ccc(-c3c(Cl)cc4c(N5CCOCC6(CN(C(=O)C(F)Cl)C6)C5)nc(OC[C@@]56CCCN5C[C@H](F)C6)nc4c3F)c12 (stereo partly drawn) [compound 283, 2-amino-4-(6-chloro-4-(2-(2-chloro-2-fluoroacetyl)-6-oxa-2,9-diazaspiro[3.6]decan-9-yl)-8-fluoro-2-(((2R,7aS)-2-fluorotetrahydro-1H-pyrrolizin-7a(5H)-yl)methoxy)quinazolin-7-yl)-7-fluorobenzo[b]thiophene-3-carbonitrile] |
| < 5 | < 5 | N#Cc1c(N)sc2c(F)ccc(-c3c(Cl)cc4c(N5CC(F)(F)CCC6(CN(C(=O)[C@@H]7CC7(F)F)C6)C5)nc(OC[C@@]56CCCN5C[C@H](F)C6)nc4c3F)c12 [compound 232, 2-amino-4-(6-chloro-4-(2-((S)-2,2-difluorocyclopropane-1-carbonyl)-8,8-difluoro-2,6-diazaspiro[3.6]decan-6-yl)-8-fluoro-2-(((2R,7aS)-2-fluorotetrahydro-1H-pyrrolizin-7a(5H)-yl)methoxy)quinazolin-7-yl)-7-fluorobenzo[b]thiophene-3-carbonitrile] |

Continued, molecule first:

| SMILES | IC50 (KRASG12D) [µM] | IC50 (KRASwt) [µM] |
| --- | --- | --- |
| N#Cc1c(N)sc2c(F)ccc(-c3c(Cl)cc4c(N5CCCC6(CN(C(=O)C(F)F)C6)C5)nc(OC[C@@]56CCCN5C[C@H](F)C6)nc4c3F)c12 [compound 125, 2-amino-4-(6-chloro-4-(2-(2,2-difluoroacetyl)-2,6-diazaspiro[3.5]nonan-6-yl)-8-fluoro-2-(((2R,7aS)-2-fluorotetrahydro-1H-pyrrolizin-7a(5H)-yl)methoxy)quinazolin-7-yl)-7-fluorobenzo[b]thiophene-3-carbonitrile] | < 5 | < 5 |
| N#Cc1c(N)sc2c(F)ccc(-c3c(Cl)cc4c(N5CCC6(CN(C(=O)C7CC7(F)F)C6)C5)nc(OC[C@@]56CCCN5C[C@H](F)C6)nc4c3F)c12 (stereo partly drawn) [compound 143, 2-amino-4-(6-chloro-4-(2-(2,2-difluorocyclopropane-1-carbonyl)-2,6-diazaspiro[3.4]octan-6-yl)-8-fluoro-2-(((2R,7aS)-2-fluorotetrahydro-1H-pyrrolizin-7a(5H)-yl)methoxy)quinazolin-7-yl)-7-fluorobenzo[b]thiophene-3-carbonitrile] | < 5 | < 5 |
| CC(C)NC(=O)N1CC2(CC(Nc3nc(OCC45CCCN4C[C@H](F)C5)nc4c(F)c(-c5ccc(F)c6sc(N)c(C#N)c56)c(Cl)cc34)C2)C1 (stereo partly drawn) [compound 151, 6-((7-(2-amino-3-cyano-7-fluorobenzo[b]thiophen-4-yl)-6-chloro-8-fluoro-2-(((2R)-2-fluorotetrahydro-1H-pyrrolizin-7a(5H)-yl)methoxy)quinazolin-4-yl)amino)-N-isopropyl-2-azaspiro[3.3]heptane-2-carboxamide] | < 5 | < 5 |
| N#Cc1c(N)sc2c(F)ccc(-c3c(Cl)cc4c(N5CCOC6(CNC6)C5)nc(OC[C@@]56CCCN5C[C@H](F)C6)nc4c3F)c12 [compound 175, 2-amino-4-(6-chloro-8-fluoro-2-(((2R,7aS)-2-fluorotetrahydro-1H-pyrrolizin-7a(5H)-yl)methoxy)-4-(5-oxa-2,8-diazaspiro[3.5]nonan-8-yl)quinazolin-7-yl)-7-fluorobenzo[b]thiophene-3-carbonitrile] | < 5 | < 5 |
| CN(C)C/C=C/C(=O)N1CC2(C1)CN(c1nc(OC[C@@]34CCCN3C[C@H](F)C4)nc3c(F)c(-c4ccc(F)c5sc(N)nc45)c(Cl)cc13)CCO2 [compound 178, (E)-1-(8-(7-(2-amino-7-fluorobenzo[d]thiazol-4-yl)-6-chloro-8-fluoro-2-(((2R,7aS)-2-fluorotetrahydro-1H-pyrrolizin-7a(5H)-yl)methoxy)quinazolin-4-yl)-5-oxa-2,8-diazaspiro[3.5]nonan-2-yl)-4-(dimethylamino)but-2-en-1-one] | < 5 | < 5 |
| N#Cc1c(N)sc2c(F)ccc(-c3c(Cl)cc4c(N5CCC6(CC5)CN(C(=O)C5CC5(F)F)C6)nc(OC[C@@]56CCCN5C[C@H](F)C6)nc4c3F)c12 (stereo partly drawn) [compound 131, 2-amino-4-(6-chloro-4-(2-(2,2-difluorocyclopropane-1-carbonyl)-2,7-diazaspiro[3.5]nonan-7-yl)-8-fluoro-2-(((2R,7aS)-2-fluorotetrahydro-1H-pyrrolizin-7a(5H)-yl)methoxy)quinazolin-7-yl)-7-fluorobenzo[b]thiophene-3-carbonitrile] | < 5 | < 5 |
| C#Cc1c(F)ccc2cc(O)cc(-c3nc4c(cc3F)c(N3CCOC5(CNC5)C3)nc(=O)n4-c3c(C)ccnc3C(C)C)c12 [compound 170, 7-(8-ethynyl-7-fluoro-3-hydroxynaphthalen-1-yl)-6-fluoro-1-(2-isopropyl-4-methylpyridin-3-yl)-4-(5-oxa-2,8-diazaspiro[3.5]nonan-8-yl)pyrido[2,3-d]pyrimidin-2(1H)-one] | ≥ 5 | ≥ 5 |
| N#Cc1c(N)sc2c(F)ccc(-c3c(Cl)cc4c(N5CCCCC6(CN(C(=O)N7CCCC7)C6)C5)nc(OC[C@@]56CCCN5C[C@H](F)C6)nc4c3F)c12 [compound 231, 2-amino-4-(6-chloro-8-fluoro-2-(((2R,7aS)-2-fluorotetrahydro-1H-pyrrolizin-7a(5H)-yl)methoxy)-4-(2-(pyrrolidine-1-carbonyl)-2,6-diazaspiro[3.6]decan-6-yl)quinazolin-7-yl)-7-fluorobenzo[b]thiophene-3-carbonitrile] | < 5 | < 5 |
| N#Cc1c(N)sc2c(F)ccc(-c3c(Cl)cc4c(N5CCCCC6(CN(C(=O)C78CC(F)(C7)C8)C6)C5)nc(OC[C@@]56CCCN5C[C@H](F)C6)nc4c3F)c12 [compound 199, 2-amino-4-(6-chloro-8-fluoro-4-(2-(3-fluorobicyclo[1.1.1]pentane-1-carbonyl)-2,6-diazaspiro[3.6]decan-6-yl)-2-(((2R,7aS)-2-fluorotetrahydro-1H-pyrrolizin-7a(5H)-yl)methoxy)quinazolin-7-yl)-7-fluorobenzo[b]thiophene-3-carbonitrile] | < 5 | < 5 |
| N#Cc1c(N)sc2c(F)ccc(-c3c(Cl)cc4c(N5CCOC6(CN(C(=O)C(F)Cl)C6)C5)nc(OC[C@@]56CCCN5C[C@H](F)C6)nc4c3F)c12 (stereo partly drawn) [compound 200, 2-amino-4-(6-chloro-4-(2-(2-chloro-2-fluoroacetyl)-5-oxa-2,8-diazaspiro[3.5]nonan-8-yl)-8-fluoro-2-(((2R,7aS)-2-fluorotetrahydro-1H-pyrrolizin-7a(5H)-yl)methoxy)quinazolin-7-yl)-7-fluorobenzo[b]thiophene-3-carbonitrile] | < 5 | < 5 |
| C[C@H](Oc1nc(N2CCCC3(CN(C(=O)c4ccnn4C)C3)C2)c2cc(Cl)c(-c3ccc(F)c4sc(N)c(C#N)c34)c(F)c2n1)[C@@H]1CCCN1C [compound 127, 2-amino-4-(6-chloro-8-fluoro-4-(2-(1-methyl-1H-pyrazole-5-carbonyl)-2,6-diazaspiro[3.5]nonan-6-yl)-2-((S)-1-((S)-1-methylpyrrolidin-2-yl)ethoxy)quinazolin-7-yl)-7-fluorobenzo[b]thiophene-3-carbonitrile] | < 5 | < 5 |
